target: T1, Met kinase (Homo sapiens, UniProt P08581); assay: Met kinase inhibition (enzyme assay), flashplate method; assay type: biochemical
T1 construct: 6His (N); purchased Upstate 14-526; host or cells: Sf21 insect cells (S. frugiperda), baculovirus
Excerpt: Measurement of Met Kinase Activity
According to the manufacturer's data (Met, active, upstate, catalogue No. 14-526), Met kinase is expressed for the purposes of protein production in insect cells (Sf21; S. frugiperda) and subsequent affinity-chromatographic purification as “N-terminal 6His-tagged” recombinant human protein in a baculovirus expression vector.
The kinase activity can be measured using various available measurement systems. In the scintillation proximity method (Sorg et al., J. of Biomolecular Screening, 2002, 7, 11-19), the flashplate method or the filter binding test, the radioactive phosphorylation of a protein or peptide as substrate is measured using radioactively labelled ATP (^32P-ATP, ^33P-ATP). In the case of the presence of an inhibitory compound, a reduced radioactive signal, or none at all, can be detected. Furthermore, homogeneous time-resolved fluorescence resonance energy transfer (HTR-FRET) and fluoroescence polarisation (FP) technologies can be used as assay methods (Sills et al., J. of Biomolecular Screening, 2002, 191-214).
Flashplate Method (Met Kinase)
The test plates used are 96-well Flashplate® microtitre plates from Perkin Elmer (Cat. No. SMP200). The components of the kinase reaction described below are pipetted into the assay plate. The Met kinase and the substrate poly Ala-Glu-Lys-Tyr, (pAGLT, 6:2:5:1), are incubated for 3 hrs at room temperature with radioactively labelled ^33P-ATP in the presence and absence of test substances in a total volume of 100 μl. The reaction is terminated using 150 μl of a 60 mM EDTA solution. After incubation for a further 30 min at room temperature, the supernatants are filtered off with suction, and the wells are washed three times with 200 μl of 0.9% NaCl solution each time. The measurement of the bound radioactivity is carried out by means of a scintillation measuring instrument (Topcount NXT, Perkin-Elmer).
The full value used is the inhibitor-free kinase reaction. This should be approximately in the range 6000-9000 cpm. The pharmacological zero value used is staurosporin in a final concentration of 0.1 mM. The inhibitory values (IC50) are determined using the RS1_MTS program.
Kinase reaction conditions per well: • 30 μl of assay buffer • 10 μl of substance to be tested in assay buffer with 10% of DMSO • 10 μl of ATP (final concentration 1 μM cold, 0.35 μCi of ^33P-ATP) • 50 μl of Met kinase/substrate mixture in assay buffer; • (10 ng of enzyme/well, 50 ng of pAGLT/well)
50 mM HEPES • 3 mM magnesium chloride • 3 μM sodium orthovanadate • 3 mM manganese(II) chloride • 1 mM dithiothreitol (DTT)
pH=7.5 (to be set using sodium hydroxide)
60 mM Titriplex III (EDTA)
Met kinase: Upstate, Cat. No. 14-526, Stock 1 μg/10 μl; spec. activity 954 U/mg;
Poly-Ala-Glu-Lys-Tyr, 6:2:5:1: Sigma Cat. No. P1152
Pharmacological Data Met Kinase Inhibitions (Enzyme Assay)

T1 sequence (P08581 974-1390 limits assumed): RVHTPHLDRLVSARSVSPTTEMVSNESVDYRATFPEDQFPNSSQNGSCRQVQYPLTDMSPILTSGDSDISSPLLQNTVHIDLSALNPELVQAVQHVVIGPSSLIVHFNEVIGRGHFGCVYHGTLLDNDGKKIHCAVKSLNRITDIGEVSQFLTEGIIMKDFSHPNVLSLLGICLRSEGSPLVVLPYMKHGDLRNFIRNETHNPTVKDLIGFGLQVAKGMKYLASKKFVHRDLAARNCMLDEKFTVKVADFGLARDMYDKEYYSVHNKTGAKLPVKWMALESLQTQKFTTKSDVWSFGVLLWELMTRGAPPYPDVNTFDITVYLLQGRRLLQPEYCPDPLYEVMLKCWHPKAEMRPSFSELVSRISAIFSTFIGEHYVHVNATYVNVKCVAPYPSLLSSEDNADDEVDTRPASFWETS

IC50, 0.01 to 1 µM:
CCOC(=O)Nc1cccc(Cn2nc(-c3ccc(CNC(=O)CCNC=O)cc3)ccc2=O)c1 [A78]
CCOC(=O)Nc1cccc(Cn2nc(-c3cccc(CC(=O)NCCCCN)c3)ccc2=O)c1 [A139]
CCOC(=O)Nc1cccc(Cn2nc(-c3ccc(C(=O)NCC(O)CO)cc3)ccc2=O)c1 (stereo not drawn) [A6]
CCOC(=O)Nc1cccc(Cn2nc(-c3cccc(C(=O)NCCCN(C)C)c3)ccc2=O)c1 [A47]
CCOC(=O)Nc1cccc(Cn2nc(-c3ccc(C(=O)NCCN)cc3)ccc2=O)c1 [A132]
CCOC(=O)Nc1cccc(Cn2nc(-c3ccc(C(=O)NCCCn4ccnc4)cc3)ccc2=O)c1 [A10]
CCOC(=O)Nc1cccc(Cn2nc(-c3cccc(CC(=O)NCCN)c3)ccc2=O)c1 [A141]
CCOC(=O)Nc1cccc(Cn2nc(-c3ccc(C(=O)NCCN(CC)CC)cc3)ccc2=O)c1 [A20]
CCOC(=O)Nc1cccc(Cn2nc(-c3cccc(CNC(=O)CCNC=O)c3)ccc2=O)c1 [A104]
CCOC(=O)Nc1cccc(Cn2nc(-c3ccc(C(=O)NCCCCN)cc3)ccc2=O)c1 [A129, ethyl(3-{3-[4-(4-aminobutylcarbamoyl)phenyl]-6-oxo-6H-pyridazin-1-ylmethyl}phenyl)carbamate]
CCOC(=O)Nc1cccc(Cn2nc(-c3ccc(CC(=O)NCCNC(=O)OC(C)(C)C)cc3)ccc2=O)c1 [A55]
CCOC(=O)Nc1cccc(Cn2nc(-c3ccc(CNC(=O)CCOC)cc3)ccc2=O)c1 [A84]
CCOC(=O)Nc1cccc(Cn2nc(-c3ccc(C(=O)NCCS(C)(=O)=O)cc3)ccc2=O)c1 [A7]
CCOC(=O)Nc1cccc(Cn2nc(-c3cccc(CC(N)=O)c3)ccc2=O)c1 [A69]
CCOC(=O)Nc1cccc(Cn2nc(-c3cccc(CNC(=O)CCN(CC)CC)c3)ccc2=O)c1 [A107]
CCOC(=O)Nc1cccc(Cn2nc(-c3cccc(CNC(=O)CN)c3)ccc2=O)c1 [A133]
CCOC(=O)CNC(=O)c1ccc(-c2ccc(=O)n(Cc3cccc(NC(=O)OCC)c3)n2)cc1 [A8]
CCOC(=O)Nc1cccc(Cn2nc(-c3cccc(CC(=O)NCCN(C)C)c3)ccc2=O)c1 [A65]
CCOC(=O)Nc1cccc(Cn2nc(-c3cccc(CNC(=O)COC)c3)ccc2=O)c1 [A99]
CCOC(=O)Nc1cccc(Cn2nc(-c3cccc(C(=O)NCCCCN(C)C)c3)ccc2=O)c1 [A46]
CCOC(=O)Nc1cccc(Cn2nc(-c3cccc(CNC(=O)CCN)c3)ccc2=O)c1 [A135]
CCOC(=O)Nc1cccc(Cn2nc(-c3cccc(CC(=O)NCCCO)c3)ccc2=O)c1 [A66]
CCOC(=O)Nc1cccc(Cn2nc(-c3ccc(CC(=O)NCCCCN(C)C)cc3)ccc2=O)c1 [A56]
CCOC(=O)Nc1cccc(Cn2nc(-c3cccc(CNC(=O)CN4CCNCC4)c3)ccc2=O)c1 [A144]
CCOC(=O)Nc1cccc(Cn2nc(-c3ccc(CNC(=O)CNC(C)=O)cc3)ccc2=O)c1 [A75, ethyl[3-(3-{4-[(2-acetylaminoacetylamino)methyl]phenyl}-6-oxo-6H-pyridazin-1-ylmethyl)phenyl]carbamate]
CCOC(=O)Nc1cccc(Cn2nc(-c3ccc(CNC(=O)CCN(C)C)cc3)ccc2=O)c1 [A83]
CCOC(=O)CN(C)C(=O)c1ccc(-c2ccc(=O)n(Cc3cccc(NC(=O)OCC)c3)n2)cc1 [A9]
CCOC(=O)Nc1cccc(Cn2nc(-c3cccc(CNC(=O)CCO)c3)ccc2=O)c1 [A105]
CCOC(=O)Nc1cccc(Cn2nc(-c3ccc(CNC(=O)CN4CCOCC4)cc3)ccc2=O)c1 [A82]
CCOC(=O)Nc1cccc(Cn2nc(-c3cccc(C(=O)NCCCN)c3)ccc2=O)c1 [A137]
CCOC(=O)Nc1cccc(Cn2nc(-c3cccc(CNC(=O)CO)c3)ccc2=O)c1 [A101]
CCOC(=O)Nc1cccc(Cn2nc(-c3ccc(CC(N)=O)cc3)ccc2=O)c1 [A57]
CCOC(=O)Nc1cccc(Cn2nc(-c3cccc(CNC(=O)CNC(C)=O)c3)ccc2=O)c1 [A93]
CCOC(=O)Nc1cccc(Cn2nc(-c3cccc(CC(=O)NCCCN)c3)ccc2=O)c1 [A140]
CCOC(=O)Nc1cccc(Cn2nc(-c3cccc(CC(=O)NCCCN(C)C)c3)ccc2=O)c1 [A64]
CCOC(=O)Nc1cccc(Cn2nc(-c3cccc(CNC(=O)Cn4ccccc4=O)c3)ccc2=O)c1 [A94]
CCOC(=O)Nc1cccc(Cn2nc(-c3ccc(C(=O)N(C)CCO)cc3)ccc2=O)c1 [A12]
CCOC(=O)Nc1cccc(Cn2nc(-c3cccc(CC(=O)NCCCCN(C)C)c3)ccc2=O)c1 [A63]
CCOC(=O)Nc1cccc(Cn2nc(-c3ccc(CNC(=O)CN4CCNCC4)cc3)ccc2=O)c1 [A143]
CCOC(=O)Nc1cccc(Cn2nc(-c3ccc(C(=O)NCCN4CCOCC4)cc3)ccc2=O)c1 [A17]
CCOC(=O)Nc1cccc(Cn2nc(-c3ccc(CNC(=O)CO)cc3)ccc2=O)c1 [A85]
CCOC(=O)Nc1cccc(Cn2nc(-c3ccc(CC(=O)NCCCCNC(=O)OC(C)(C)C)cc3)ccc2=O)c1 [A54, ethyl[3-(3-{4-[(4-tert-butoxycarbonylaminobutyl-carbamoyl)methyl]phenyl}-6-oxo-6H-pyridazin-1-ylmethyl)phenyl]-carbamate]
CCOC(=O)Nc1cccc(Cn2nc(-c3cccc(C(=O)NCCCCN)c3)ccc2=O)c1 [A136]
CCOC(=O)Nc1cccc(Cn2nc(-c3ccc(CNC(=O)Cn4cnnn4)cc3)ccc2=O)c1 [A79]
CCOC(=O)Nc1cccc(Cn2nc(-c3cccc(C(=O)NCCCNC(=O)OC(C)(C)C)c3)ccc2=O)c1 [A44]
CCOC(=O)Nc1cccc(Cn2nc(-c3ccc(C(=O)NCCCN4CCCCC4)cc3)ccc2=O)c1 [A26]
CCOC(=O)Nc1cccc(Cn2nc(-c3ccc(C(=O)NCCCN4CCOCC4)cc3)ccc2=O)c1 [A27]
CCOC(=O)Nc1cccc(Cn2nc(-c3cccc(C(=O)NCCN)c3)ccc2=O)c1 [A138]
CCOC(=O)Nc1cccc(Cn2nc(-c3ccc(CNC(=O)Cc4nnn[nH]4)cc3)ccc2=O)c1 [A77]
CCOC(=O)Nc1cccc(Cn2nc(-c3cccc(C(=O)NCCOC)c3)ccc2=O)c1 [A50]
CCOC(=O)Nc1cccc(Cn2nc(-c3cccc(CC(=O)NCCNC(=O)OC(C)(C)C)c3)ccc2=O)c1 [A62]
CCOC(=O)Nc1cccc(Cn2nc(-c3cccc(CNC(=O)CCN(C)C)c3)ccc2=O)c1 [A103]
CCOC(=O)Nc1cccc(Cn2nc(-c3cccc(CNC(=O)CCN4CCN(C(=O)OC(C)(C)C)CC4)c3)ccc2=O)c1 [A108]
CCOC(=O)Nc1cccc(Cn2nc(-c3cccc(CNC(=O)Cn4cnnn4)c3)ccc2=O)c1 [A95]
CCOC(=O)CCNC(=O)c1ccc(-c2ccc(=O)n(Cc3cccc(NC(=O)OCC)c3)n2)cc1 [A13]
CCOC(=O)Nc1cccc(Cn2nc(-c3cccc(CNC(=O)CCOC)c3)ccc2=O)c1 [A100]
CCOC(=O)Nc1cccc(Cn2nc(-c3ccc(C(=O)NCCCN4CCCC4=O)cc3)ccc2=O)c1 [A24]
CCOC(=O)Nc1cccc(Cn2nc(-c3cccc(C(=O)NCCCO)c3)ccc2=O)c1 [A52]
CCOC(=O)Nc1cccc(Cn2nc(-c3ccc(CNC(=O)Cn4ccccc4=O)cc3)ccc2=O)c1 [A76]
CCOC(=O)Nc1cccc(Cn2nc(-c3cccc(CC(=O)NCCCNC(=O)OC(C)(C)C)c3)ccc2=O)c1 [A61]
CCOC(=O)Nc1cccc(Cn2nc(-c3ccc(CC(=O)NCCCCN)cc3)ccc2=O)c1 [A146]
CCOC(=O)Nc1cccc(Cn2nc(-c3ccc(CNC(=O)COC)cc3)ccc2=O)c1 [A81]
CCOC(=O)Nc1cccc(Cn2nc(-c3cccc(CNC(=O)CCN4CCCCC4)c3)ccc2=O)c1 [A109]

From patent US8367668B2, “Pyridazinone derivatives” (Merck Patent Gesellschaft mit Beschränkter Haftung, priority 2007, dated 2013)
